This note sets out measurements from ChEMBL document CHEMBL1833843, “Diarylpropanes and an arylpropyl quinone from Combretum griffithii” (J Nat Prod, 2011).

≈ marks a conversion by molar mass, not a printed value. Calls of active or inactive are those of the source. The rule behind the calls is not given here.

Test [1] relates to Plasmodium falciparum. The test is described as follows: Antimalarial activity against multidrug-resistant Plasmodium falciparum K1 assessed as [3H]-hypoxanthine uptake at 10 ug/mL after 24 hrs by scintillation counting. The test is classed as functional, organism-based.
Test [2] concerns KB. The test is described as follows: Cytotoxicity against human KB cells by sulforhodamine B assay. Type of test: functional, cell-based. In general terms: Sulforhodamine B stains cellular protein and so reports cell mass.
In test [3] the test system is Mycobacterium tuberculosis. The test is described as follows: Antimycobacterial activity against Mycobacterium tuberculosis H37Ra by microplate alamar blue assay. The test is classed as functional.
Test [4] concerns Plasmodium falciparum. The test is described as follows: Antimalarial activity against multidrug-resistant Plasmodium falciparum K1 assessed as [3H]-hypoxanthine uptake after 24 hrs by scintillation counting.
In test [5] the test system is MCF7. The test is described as follows: Cytotoxicity against human MCF7 cells by sulforhodamine B assay. The test is classed as functional, cell-based.
Test [6] concerns NCI-H187. The test is described as follows: Cytotoxicity against human NCI-H187 cells by sulforhodamine B assay. Type of test: functional, cell-based.

In general, IC50 refers to the midpoint of a concentration-inhibition curve. As usually defined, the MIC is the lowest concentration found to suppress growth. Low values mean greater potency, high ones weaker potency. Regarding `COc1ccc(CCCc2ccc(O)c(OC)c2)c(O)c1`, in test [1], the outcome was inactive. In test [2], it took 2.18 µg/mL (≈ 7.56 µM) to reach half-maximal inhibition (IC50). This compound yielded an MIC in test [3] of 3.13 µg/mL (≈ 10.9 µM).
For the compound `COc1cc(O)c(O)cc1CCCc1ccc(OC)c(OC)c1`, in test [1], the outcome was inactive.
Regarding `C[C@H]1[C@@H](O)O[C@@H]2O[C@@]3(C)CC[C@H]4[C@H](C)CC[C@@H]1[C@@]24OO3` [ARTENIMOL], in test [4], the half-maximal inhibitory concentration (IC50) was 0.001 µg/mL (≈ 0.00352 µM).
As to `COc1cc(CCCc2cc(OC)c(O)cc2OC)ccc1O` [GRIFFITHANE A], in test [1], the result was inactive. The midpoint of inhibition in test [2], the IC50, lay at 2.13 µg/mL (≈ 6.69 µM).
For `COc1cc(CCCc2ccc(OC)c(O)c2OC)ccc1O` [GRIFFITHANE B] the same measures were “inactive” and 5.67 µg/mL (≈ 17.8 µM).
For `COC1=CC(=O)C(CCCc2ccc(O)c(OC)c2)=CC1=O` [GRIFFITHANE D], the concentration for half-maximal inhibition (IC50) in test [5] is 6.75 µg/mL (≈ 22.3 µM); in test [2], 1.42 µg/mL (≈ 4.7 µM); in test [6] it was 1.08 µg/mL (≈ 3.57 µM). Further, the result in test [1] was inactive.
In turn, `NNC(=O)c1ccncc1` [ISONIAZID] returned an MIC in test [3] of 0.23 µg/mL (≈ 1.68 µM).
